Source: doi:10.1101/2025.01.28.635346v1 (bioRxiv, 2025)
Bridge positions count the residues as written; N and C are the ends. Side chains are listed from the residue outwards. Peptide text beside a SMILES is read from it. * marks the point of attachment. Butanoyl(4-(4-I-phenyl)) = O=C(CCCc1ccc(I)cc1)*; PEG2 = NCCOCCOCCC(=O)O

Legend:
[1] = target: T1, CHRM1 (Homo sapiens, UniProt P11229); assay: Safetyscan47 GPCR Calcium Flux, Agonist; type: cell-based; details: for Emax: read-out: Max Response
T1 sequence (P11229 1-460): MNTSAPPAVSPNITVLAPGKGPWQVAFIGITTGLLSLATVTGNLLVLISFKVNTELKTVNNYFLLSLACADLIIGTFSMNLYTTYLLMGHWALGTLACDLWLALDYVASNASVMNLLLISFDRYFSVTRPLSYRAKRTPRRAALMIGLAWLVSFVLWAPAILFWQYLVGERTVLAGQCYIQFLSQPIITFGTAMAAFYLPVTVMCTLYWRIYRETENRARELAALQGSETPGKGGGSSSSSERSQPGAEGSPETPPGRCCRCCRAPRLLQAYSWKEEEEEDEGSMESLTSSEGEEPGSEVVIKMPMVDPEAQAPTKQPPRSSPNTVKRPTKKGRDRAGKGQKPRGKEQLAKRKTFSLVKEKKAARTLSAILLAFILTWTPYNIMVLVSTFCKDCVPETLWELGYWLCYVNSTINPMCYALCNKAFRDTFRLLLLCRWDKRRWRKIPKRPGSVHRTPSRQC

[2] = target: HTR2A (Homo sapiens, UniProt P28223); assay: Safetyscan47 GPCR Calcium Flux, Agonist; type: cell-based; details: for Emax: read-out: Max Response
Sequence of HTR2A (P28223 whole entry): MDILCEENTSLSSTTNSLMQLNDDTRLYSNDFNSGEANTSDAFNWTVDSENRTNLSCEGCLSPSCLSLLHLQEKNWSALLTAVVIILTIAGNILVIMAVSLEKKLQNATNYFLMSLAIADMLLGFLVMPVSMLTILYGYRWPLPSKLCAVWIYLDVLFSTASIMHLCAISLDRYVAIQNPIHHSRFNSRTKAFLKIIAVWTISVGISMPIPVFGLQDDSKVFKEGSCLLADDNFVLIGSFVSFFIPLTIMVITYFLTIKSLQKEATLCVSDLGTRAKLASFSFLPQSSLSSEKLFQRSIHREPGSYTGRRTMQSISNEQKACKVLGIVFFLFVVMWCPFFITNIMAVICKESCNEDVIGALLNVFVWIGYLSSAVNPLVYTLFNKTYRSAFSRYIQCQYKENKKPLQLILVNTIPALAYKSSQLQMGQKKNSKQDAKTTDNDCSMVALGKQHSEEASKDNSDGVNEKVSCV

[3] = target: HTR2B (Homo sapiens, UniProt P41595); assay: Safetyscan47 GPCR Calcium Flux, Agonist; type: cell-based; details: for Emax: read-out: Max Response
Sequence of HTR2B (P41595 whole entry): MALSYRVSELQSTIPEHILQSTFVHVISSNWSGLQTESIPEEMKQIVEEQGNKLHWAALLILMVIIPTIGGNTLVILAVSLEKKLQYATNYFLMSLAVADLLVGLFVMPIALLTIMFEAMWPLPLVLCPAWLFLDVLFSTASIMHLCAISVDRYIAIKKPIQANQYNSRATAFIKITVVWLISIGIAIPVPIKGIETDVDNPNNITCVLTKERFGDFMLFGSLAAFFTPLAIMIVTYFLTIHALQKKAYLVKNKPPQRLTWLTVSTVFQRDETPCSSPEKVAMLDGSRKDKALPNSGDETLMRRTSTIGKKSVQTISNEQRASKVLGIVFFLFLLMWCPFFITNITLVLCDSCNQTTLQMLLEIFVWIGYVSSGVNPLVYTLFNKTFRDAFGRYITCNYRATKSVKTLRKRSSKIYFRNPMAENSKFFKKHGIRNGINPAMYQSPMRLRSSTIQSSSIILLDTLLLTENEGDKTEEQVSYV

[4] = target: CHRM3 (Homo sapiens, UniProt P20309); assay: Safetyscan47 GPCR Calcium Flux, Antagonist; type: cell-based; details: for Emax: read-out: Max Response
Sequence of CHRM3 (P20309 whole entry): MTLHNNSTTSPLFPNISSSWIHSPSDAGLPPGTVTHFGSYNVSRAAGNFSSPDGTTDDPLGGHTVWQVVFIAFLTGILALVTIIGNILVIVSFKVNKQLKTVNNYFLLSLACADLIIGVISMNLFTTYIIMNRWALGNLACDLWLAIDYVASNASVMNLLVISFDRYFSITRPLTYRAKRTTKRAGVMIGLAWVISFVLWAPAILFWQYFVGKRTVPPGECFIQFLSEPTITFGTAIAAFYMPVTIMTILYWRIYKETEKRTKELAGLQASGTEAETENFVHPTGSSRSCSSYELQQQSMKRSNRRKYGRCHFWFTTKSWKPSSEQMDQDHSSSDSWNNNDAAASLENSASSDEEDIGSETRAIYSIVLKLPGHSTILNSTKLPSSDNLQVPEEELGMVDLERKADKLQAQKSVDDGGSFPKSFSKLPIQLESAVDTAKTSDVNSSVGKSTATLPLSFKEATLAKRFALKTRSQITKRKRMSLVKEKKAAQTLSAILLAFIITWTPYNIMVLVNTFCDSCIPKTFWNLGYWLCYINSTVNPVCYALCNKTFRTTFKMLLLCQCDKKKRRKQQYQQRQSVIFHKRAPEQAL

[5] = target: HRH2 (Homo sapiens, UniProt P25021); assay: Safetyscan47 GPCR cAMP, Agonist; type: cell-based; details: for Emax: read-out: Max Response
Sequence of HRH2 (P25021 whole entry): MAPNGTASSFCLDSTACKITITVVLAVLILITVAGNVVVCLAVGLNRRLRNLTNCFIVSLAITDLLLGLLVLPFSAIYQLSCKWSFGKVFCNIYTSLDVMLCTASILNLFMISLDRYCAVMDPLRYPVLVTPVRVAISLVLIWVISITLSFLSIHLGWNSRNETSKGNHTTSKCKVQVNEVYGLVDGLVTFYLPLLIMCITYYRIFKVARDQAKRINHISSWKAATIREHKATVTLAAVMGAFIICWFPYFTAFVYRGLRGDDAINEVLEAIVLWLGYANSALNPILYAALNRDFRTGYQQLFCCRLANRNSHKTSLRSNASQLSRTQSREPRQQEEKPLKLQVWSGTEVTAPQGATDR

[6] = target: nAChR(a4/b2) (Homo sapiens, UniProt P17787+P43681); assay: Safetyscan47 Ion Channel, Opener; type: cell-based; details: for Emax: read-out: Max Response
Sequence of nAChR(a4/b2) (P43681 29-627 limits assumed): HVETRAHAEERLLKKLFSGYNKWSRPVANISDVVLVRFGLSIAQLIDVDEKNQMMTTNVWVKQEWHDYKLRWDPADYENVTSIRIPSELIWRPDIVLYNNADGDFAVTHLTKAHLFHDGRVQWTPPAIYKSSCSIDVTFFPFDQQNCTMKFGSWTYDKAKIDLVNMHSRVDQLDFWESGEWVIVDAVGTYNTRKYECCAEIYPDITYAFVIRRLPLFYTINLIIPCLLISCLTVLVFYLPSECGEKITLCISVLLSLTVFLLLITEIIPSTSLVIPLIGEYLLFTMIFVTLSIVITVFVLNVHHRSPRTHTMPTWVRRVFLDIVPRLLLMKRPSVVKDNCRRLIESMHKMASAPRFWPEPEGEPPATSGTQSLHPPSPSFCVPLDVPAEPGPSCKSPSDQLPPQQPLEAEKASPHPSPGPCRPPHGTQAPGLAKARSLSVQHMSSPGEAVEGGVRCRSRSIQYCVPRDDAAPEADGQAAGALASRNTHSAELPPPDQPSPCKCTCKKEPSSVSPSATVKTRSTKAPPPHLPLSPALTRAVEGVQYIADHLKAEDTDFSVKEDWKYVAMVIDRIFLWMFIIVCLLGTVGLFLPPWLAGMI
Sequence of nAChR(a4/b2) (P17787 26-502): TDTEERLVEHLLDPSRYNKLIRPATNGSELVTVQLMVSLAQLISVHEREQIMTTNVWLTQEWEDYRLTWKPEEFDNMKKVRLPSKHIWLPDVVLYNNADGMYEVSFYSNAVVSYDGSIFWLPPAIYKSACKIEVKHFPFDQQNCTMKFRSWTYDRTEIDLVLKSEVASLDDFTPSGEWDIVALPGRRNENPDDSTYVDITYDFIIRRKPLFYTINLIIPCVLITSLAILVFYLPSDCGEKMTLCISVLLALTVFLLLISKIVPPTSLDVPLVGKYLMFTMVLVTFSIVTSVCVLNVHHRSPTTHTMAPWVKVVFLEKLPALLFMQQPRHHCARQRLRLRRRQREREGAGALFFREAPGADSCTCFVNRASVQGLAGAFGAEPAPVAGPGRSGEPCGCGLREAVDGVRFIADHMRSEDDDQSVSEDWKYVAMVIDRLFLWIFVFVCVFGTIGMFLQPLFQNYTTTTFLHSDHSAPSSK

[7] = target: ROCK1 (Homo sapiens, UniProt Q13464); assay: Safetyscan47 Kinases Binding, Inhibitor; details: for Emax: read-out: Max Response
Sequence of ROCK1 (Q13464 whole entry): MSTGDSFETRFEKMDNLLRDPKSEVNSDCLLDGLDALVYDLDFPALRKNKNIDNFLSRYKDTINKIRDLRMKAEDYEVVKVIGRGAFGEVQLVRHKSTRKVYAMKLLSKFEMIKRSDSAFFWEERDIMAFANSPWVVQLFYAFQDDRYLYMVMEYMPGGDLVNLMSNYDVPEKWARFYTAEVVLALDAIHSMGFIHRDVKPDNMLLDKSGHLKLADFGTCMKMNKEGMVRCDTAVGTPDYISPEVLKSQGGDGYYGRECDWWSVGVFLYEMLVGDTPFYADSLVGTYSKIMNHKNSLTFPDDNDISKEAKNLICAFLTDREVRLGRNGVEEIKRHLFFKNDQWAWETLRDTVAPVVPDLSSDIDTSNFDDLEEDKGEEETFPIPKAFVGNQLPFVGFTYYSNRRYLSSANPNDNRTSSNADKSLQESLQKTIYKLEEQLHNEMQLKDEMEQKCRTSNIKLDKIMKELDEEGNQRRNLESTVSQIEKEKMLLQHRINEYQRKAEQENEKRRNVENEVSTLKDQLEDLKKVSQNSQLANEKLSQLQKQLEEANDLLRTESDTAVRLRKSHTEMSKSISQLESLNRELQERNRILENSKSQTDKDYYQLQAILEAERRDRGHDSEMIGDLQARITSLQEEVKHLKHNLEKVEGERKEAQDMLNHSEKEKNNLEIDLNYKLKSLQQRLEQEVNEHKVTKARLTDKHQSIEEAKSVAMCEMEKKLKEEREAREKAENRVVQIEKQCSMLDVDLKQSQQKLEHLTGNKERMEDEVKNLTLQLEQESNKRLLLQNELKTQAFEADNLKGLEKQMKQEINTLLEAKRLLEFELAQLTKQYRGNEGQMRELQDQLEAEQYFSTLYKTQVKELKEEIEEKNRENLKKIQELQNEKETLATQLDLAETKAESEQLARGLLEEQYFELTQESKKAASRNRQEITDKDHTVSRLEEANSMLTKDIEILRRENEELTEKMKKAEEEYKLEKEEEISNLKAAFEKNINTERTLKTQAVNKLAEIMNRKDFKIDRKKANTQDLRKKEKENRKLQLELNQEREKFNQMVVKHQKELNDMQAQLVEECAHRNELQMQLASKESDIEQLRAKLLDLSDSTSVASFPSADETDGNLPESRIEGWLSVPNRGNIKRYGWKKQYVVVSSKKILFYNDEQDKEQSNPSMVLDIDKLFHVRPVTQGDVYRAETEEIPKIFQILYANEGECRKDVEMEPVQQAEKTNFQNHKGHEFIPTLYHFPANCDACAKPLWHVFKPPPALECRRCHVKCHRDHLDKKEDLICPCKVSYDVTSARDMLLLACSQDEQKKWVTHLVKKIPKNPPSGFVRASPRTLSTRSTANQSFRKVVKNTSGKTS

[8] = Solubility and aggregation; type: physicochemical
[9] = Pharmacokinetics in female Sprague-Dawley rats; type: in vivo, rat
[10] = Tissue distribution in female Balb/c mice; type: in vivo, mouse; details: for Brain concentration / Colon concentration / Kidneys concentration / Liver concentration / Mammary concentration / Ovaries concentration / Plasma Concentration / Lungs concentration: Balb/c mice
[11] = female, Sprague-Dawley, rat, plasma, 30 mg/kg
[12] = female, Sprague-Dawley, rat, plasma, iv, 30 mg/kg
[13] = 3 hr, Mouse 1 (individual animal)
[14] = 3 hr, Mouse 2 (individual animal)
[15] = 3 hr, Mouse 3 (individual animal)
[16] = 8 hr, Mouse 1 (individual animal)
[17] = 8 hr, Mouse 2 (individual animal)
[18] = 8 hr, Mouse 3 (individual animal)
[19] = female, Balb/c, mouse, brain, ip, 30 mg/kg
[20] = female, Balb/c, mouse, breast tissue including mammary gland, ip, 30 mg/kg
[21] = female, Balb/c, mouse, colon, ip, 30 mg/kg
[22] = female, Balb/c, mouse, kidney, ip, 30 mg/kg
[23] = female, Balb/c, mouse, kidneys, ip, 30 mg/kg
[24] = female, Balb/c, mouse, liver, ip, 30 mg/kg
[25] = female, Balb/c, mouse, lungs, ip, 30 mg/kg
[26] = female, Balb/c, mouse, ovaries, ip, 30 mg/kg
[27] = female, Balb/c, mouse, plasma, ip, 30 mg/kg

CC[C@H](C)[C@H](NC(=O)[C@H](CC(C)C)NC(=O)[C@H](CC(=O)O)NC(=O)CNC(=O)[C@H](CCCNC(=N)N)NC(=O)[C@@H](NC(=O)[C@H](Cc1ccccc1)NC(=O)[C@H](Cc1ccc(O)cc1)NC(=O)[C@@H]1CCC(=O)NCC(=O)NCC(=O)N[C@@H](CCCNC(=N)N)C(=O)NCC(=O)N[C@@H](Cc2c[nH]cn2)C(=O)N[C@@H](C(C)C)C(=O)N2CCC[C@H]2C(=O)N1)C(C)C)C(=O)N[C@@H](CO)C(=O)N[C@@H](Cc1ccccc1)C(=O)N[C@@H](Cc1ccc(O)cc1)C(=O)N[C@@H](CCCCN)C(=O)O [lassotide 36] (GGRGHVPEYFVRGDLISFYK-OH; lactam N-8)
EC50 [1]: > 45 µM
Emax [1]: 0.34%
EC50 [2]: > 45 µM
Emax [2]: 1.7%
EC50 [3]: > 45 µM
Emax [3]: 0%
IC50 [4]: > 45 µM
Emax [4]: 3.06%
EC50 [5]: > 45 µM
Emax [5]: 0%
EC50 [6]: > 45 µM
Emax [6]: 11%
IC50 [7]: > 45 µM
Emax [7]: 19%

CC[C@H](C)[C@H](NC(=O)[C@H](CC(C)C)NC(=O)[C@H](CC(=O)O)NC(=O)CNC(=O)[C@H](CCCNC(=N)N)NC(=O)[C@@H](NC(=O)[C@H](Cc1ccccc1)NC(=O)[C@H](Cc1ccc(O)cc1)NC(=O)[C@@H]1CCC(=O)NCC(=O)NCC(=O)N[C@@H](CCCNC(=N)N)C(=O)NCC(=O)N[C@@H](Cc2c[nH]cn2)C(=O)N[C@@H](C(C)C)C(=O)N2CCC[C@H]2C(=O)N1)C(C)C)C(=O)N[C@@H](CO)C(=O)N[C@@H](Cc1ccccc1)C(=O)N[C@@H](Cc1ccc(O)cc1)C(=O)N[C@@H](CCCCNC(=O)CCOCCOCCNC(=O)CCCc1ccc(I)cc1)C(=O)O [lassotide 47] (GGRGHVPEYFVRGDLISFYK([PEG2-Butanoyl(4-(4-I-phenyl))])-OH; lactam N-8)
Solubility in DMSO ([8]; DMSO (text: also formulations containing 10-20% DMSO and PEG)): > 200 mg/mL
solubility ([8]; acetate buffer, pH 4.5, aqueous buffer): ≥ 30 mg/mL
AUC(0-inf) [9, 11]: 2740 µg·h/mL
C0 [9, 11]: 441 µg/mL
Cmax [9, 11]: 369 µg/mL
AUC(0-t) [9, 12]: 2360 µg·h/mL
Tmax [9, 12]: 0.2 h
Vd [9, 12]: 0.1 L/kg
clearance [9, 12]: 0.012 L/h/kg
half-life [9, 12]: 8.5 h
AUCINF ([9]; rat 30 mg/kg, animal 1M001): 2670 µg·h/mL
AUClast ([9]; rat 30 mg/kg, animal 1M001): 2310 µg·h/mL
C0 ([9]; rat 30 mg/kg, animal 1M001): 383 µg/mL
CL ([9]; rat 30 mg/kg, animal 1M001): 0.0112 L/h/kg
Cmax ([9]; rat 30 mg/kg, animal 1M001): 327 µg/mL
Vz ([9]; rat 30 mg/kg, animal 1M001): 0.133 L/kg
t1/2 ([9]; rat 30 mg/kg, animal 1M001): 8.2 h
AUCINF ([9]; rat 30 mg/kg, animal 1M002): 2370 µg·h/mL
AUClast ([9]; rat 30 mg/kg, animal 1M002): 2110 µg·h/mL
C0 ([9]; rat 30 mg/kg, animal 1M002): 370 µg/mL
CL ([9]; rat 30 mg/kg, animal 1M002): 0.0127 L/h/kg
Cmax ([9]; rat 30 mg/kg, animal 1M002): 336 µg/mL
Vz ([9]; rat 30 mg/kg, animal 1M002): 0.144 L/kg
t1/2 ([9]; rat 30 mg/kg, animal 1M002): 7.9 h
AUCINF ([9]; rat 30 mg/kg, animal 1M003): 3180 µg·h/mL
AUClast ([9]; rat 30 mg/kg, animal 1M003): 2650 µg·h/mL
C0 ([9]; rat 30 mg/kg, animal 1M003): 571 µg/mL
CL ([9]; rat 30 mg/kg, animal 1M003): 0.00942 L/h/kg
Cmax ([9]; rat 30 mg/kg, animal 1M003): 443 µg/mL
Vz ([9]; rat 30 mg/kg, animal 1M003): 0.127 L/kg
t1/2 ([9]; rat 30 mg/kg, animal 1M003): 9.3 h
Brain concentration [10, 13]: 985 ng/g
Colon concentration [10, 13]: 6100 ng/g
Kidneys concentration [10, 13]: 11600 ng/g
Liver concentration [10, 13]: 4430 ng/g
Mammary concentration [10, 13]: 21700 ng/g
Ovaries concentration [10, 13]: 27800 ng/g
Plasma Concentration [10, 13]: 192 µg/mL
Brain concentration [10, 14]: 968 ng/g
Colon concentration [10, 14]: 6010 ng/g
Kidneys concentration [10, 14]: 11500 ng/g
Liver concentration [10, 14]: 4000 ng/g
Lungs concentration [10, 14]: 32400 ng/g
Mammary concentration [10, 14]: 18900 ng/g
Ovaries concentration [10, 14]: 25700 ng/g
Plasma Concentration [10, 14]: 168 µg/mL
Brain concentration [10, 15]: 756 ng/g
Colon concentration [10, 15]: 4370 ng/g
Kidneys concentration [10, 15]: 9960 ng/g
Liver concentration [10, 15]: 3250 ng/g
Lungs concentration [10, 15]: 36100 ng/g
Mammary concentration [10, 15]: 14800 ng/g
Ovaries concentration [10, 15]: 20800 ng/g
Plasma Concentration [10, 15]: 160 µg/mL
Brain concentration [10, 16]: 974 ng/g
Colon concentration [10, 16]: 2940 ng/g
Kidneys concentration [10, 16]: 12200 ng/g
Liver concentration [10, 16]: 4440 ng/g
Lungs concentration [10, 16]: 41500 ng/g
Mammary concentration [10, 16]: 12200 ng/g
Ovaries concentration [10, 16]: 18700 ng/g
Plasma Concentration [10, 16]: 117 µg/mL
Brain concentration [10, 17]: 617 ng/g
Colon concentration [10, 17]: 2460 ng/g
Kidneys concentration [10, 17]: 8480 ng/g
Liver concentration [10, 17]: 2430 ng/g
Lungs concentration [10, 17]: 31300 ng/g
Mammary concentration [10, 17]: 8100 ng/g
Ovaries concentration [10, 17]: 14700 ng/g
Plasma Concentration [10, 17]: 106 µg/mL
Brain concentration [10, 18]: 406 ng/g
Colon concentration [10, 18]: 2190 ng/g
Kidneys concentration [10, 18]: 6640 ng/g
Liver concentration [10, 18]: 2230 ng/g
Lungs concentration [10, 18]: 16000 ng/g
Mammary concentration [10, 18]: 5390 ng/g
Ovaries concentration [10, 18]: 8870 ng/g
Plasma Concentration [10, 18]: 77 µg/mL
tissue level at time at 3 h [10, 19]: 903 ng/g
tissue level at time at 8 h [10, 19]: 666 ng/g
tissue level at time at 3 h [10, 20]: 18500 ng/g
tissue level at time at 8 h [10, 20]: 8560 ng/g
tissue level at time at 3 h [10, 21]: 5490 ng/g
tissue level at time at 8 h [10, 21]: 2530 ng/g
tissue level at time at 3 h [10, 22]: 11000 ng/g
tissue level at time at 8 h [10, 22]: 9110 ng/g
tissue level at time at 3 h [10, 23]: 11000 ng/g
tissue level at time at 8 h [10, 23]: 9110 ng/g
tissue level at time at 3 h [10, 24]: 3890 ng/g
tissue level at time at 8 h [10, 24]: 3030 ng/g
tissue level at time at 3 h [10, 25]: 57200 ng/g
tissue level at time at 8 h [10, 25]: 29600 ng/g
tissue level at time at 3 h [10, 26]: 24800 ng/g
tissue level at time at 8 h [10, 26]: 14100 ng/g
level at 3 h [10, 27]: 173 µg/mL
level at 8 h [10, 27]: 100 µg/mL
EC50 [1]: > 45 µM
Emax [1]: 1.46%
EC50 [2]: > 45 µM
Emax [2]: 3.54%
EC50 [3]: > 45 µM
Emax [3]: 0%
IC50 [4]: > 45 µM
Emax [4]: 0.91%
EC50 [5]: > 45 µM
Emax [5]: 0%
EC50 [6]: > 45 µM
Emax [6]: 0%
IC50 [7]: > 45 µM
Emax [7]: 2.56%
